US8440710B2, “HSL inhibitors useful in the treatment of diabetes” (Hoffmann-La Roche Inc., priority 2009, dated 2013)

Target: T1, human HSL (Homo sapiens, UniProt Q05469)
T1 construct: generate a full length human HSL ORF with a 3′-His6 tag; made in house; host or cells: High 5 insect cells (baculovirus, pFast-BAC)
T1 sequence (Q05469 1-1076): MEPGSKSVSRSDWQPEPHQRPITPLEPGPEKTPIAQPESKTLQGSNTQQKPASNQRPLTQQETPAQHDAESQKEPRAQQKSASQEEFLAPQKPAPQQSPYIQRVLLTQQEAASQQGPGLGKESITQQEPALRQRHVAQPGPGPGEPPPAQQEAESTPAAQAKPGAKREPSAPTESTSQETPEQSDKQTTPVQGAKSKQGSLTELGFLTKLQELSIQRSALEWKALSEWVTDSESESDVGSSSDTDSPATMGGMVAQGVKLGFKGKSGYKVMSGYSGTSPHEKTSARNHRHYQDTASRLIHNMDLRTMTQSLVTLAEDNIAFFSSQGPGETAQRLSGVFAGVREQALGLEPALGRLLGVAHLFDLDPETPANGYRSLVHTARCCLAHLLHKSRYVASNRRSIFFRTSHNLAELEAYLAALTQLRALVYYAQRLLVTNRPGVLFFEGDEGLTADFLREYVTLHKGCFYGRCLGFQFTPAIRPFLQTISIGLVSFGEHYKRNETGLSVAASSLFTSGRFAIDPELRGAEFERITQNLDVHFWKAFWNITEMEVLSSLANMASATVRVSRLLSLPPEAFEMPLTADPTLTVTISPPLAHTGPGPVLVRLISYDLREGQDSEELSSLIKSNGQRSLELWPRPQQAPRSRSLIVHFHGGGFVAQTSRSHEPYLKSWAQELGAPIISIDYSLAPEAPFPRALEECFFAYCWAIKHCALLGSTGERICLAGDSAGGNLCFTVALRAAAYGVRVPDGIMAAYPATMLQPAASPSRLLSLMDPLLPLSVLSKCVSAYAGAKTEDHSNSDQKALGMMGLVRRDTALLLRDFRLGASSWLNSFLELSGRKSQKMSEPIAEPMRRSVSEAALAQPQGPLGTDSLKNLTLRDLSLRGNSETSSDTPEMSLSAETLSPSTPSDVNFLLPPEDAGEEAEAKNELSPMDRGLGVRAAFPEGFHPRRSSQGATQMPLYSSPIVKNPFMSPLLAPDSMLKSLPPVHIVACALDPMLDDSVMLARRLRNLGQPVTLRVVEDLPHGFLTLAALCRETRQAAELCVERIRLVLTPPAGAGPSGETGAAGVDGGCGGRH
Assay: Human Hormone-Sensitive Lipase (HSL) enzyme inhibition assay (colorimetric, DMPT substrate)
Assay type: biochemical
Conditions: human full length HSL-His6, 2,3-dimercapto-1-propanol tributyrate substrate, 37° C. 20 minutes, absorbance at 405 nm; read-out: HSL hum IC50
Procedure, shortened: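 Full-length human HSL with C-terminal His6, expressed in baculovirus-infected High 5 cells and Ni-NTA purified, was added (15 ug/ml stock) to 1.5 mM DMPT in 100 mM MOPS pH 7.2, 0.2 mg/ml fatty acid-free BSA containing compound. After 20 min at 37 °C, DTNB with SDS/Triton X-100 was added; A405 read after 15 min at RT.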

| SMILES | IC50 |
| --- | --- |
| COC[C@]1(O)CC[C@]2(CCN(c3ccc(C(C)C)cc3)C2=O)CC1 [Example 218, (5α,8α)-8-hydroxy-2-(4-isopropylphenyl)-8-(methoxymethyl)-2-aza-spiro[4.5]decan-1-one] | 40 nM |
| COc1ccc(N2CCC3(CC=CCC3)C2=O)cc1 (centres unmarked) [Example 47, 2-(4-Methoxy-phenyl)-2-aza-spiro[4.5]dec-7-en-1-one] | 6750 nM |
| COc1ccc(N2CC[C@]3(CC[C@H](OCc4ccccc4)CC3)C2=O)cc1 [Example 40, (5α,8α)-8-Benzyloxy-2-(4-methoxy-phenyl)-2-aza-spiro[4.5]decan-1-one] | 4590 nM |
| CC(C)(C)c1ccc(N2CC[C@]3(CC[C@@](O)(COCC(F)(F)F)CC3)C2=O)cc1 [Example 347, (5α,8α)-2-(4-tert-Butyl-phenyl)-8-hydroxy-8-(2,2,2-trifluoro-ethoxymethyl)-2-aza-spiro[4.5]decan-1-one] | 10 nM |
| CCC[C@]1(O)CC[C@]2(CCN(c3ccc(OC(F)(F)F)cc3)C2=O)CC1 [Example 55, (5α,8α)-8-Hydroxy-8-propyl-2-(4-trifluoromethoxy-phenyl)-2-aza-spiro[4.5]decan-1-one] | 20 nM |
| CCOC(=O)C[C@]1(O)CC[C@]2(CCN(c3ccc(OC(F)(F)F)cc3)C2=O)CC1 [Example 116, [(5α,8α)-8-Hydroxy-1-oxo-2-(4-trifluoromethoxy-phenyl)-2-aza-spiro[4.5]dec-8-yl]-acetic acid ethyl ester] | 10 nM |
| CC(C)S(=O)(=O)C[C@]1(O)CC[C@]2(CCN(c3ccc(OCC(F)(F)F)cc3)C2=O)CC1 [Example 318, (5α,8α)-8-Hydroxy-8-(propane-2-sulfonylmethyl)-2-[4-(2,2,2-trifluoro-ethoxy)-phenyl]-2-aza-spiro[4.5]decan-1-one] | 30 nM |
| CC(C)(C)c1ccc(N2CCC3(CCC(C(O)C(F)(F)F)CC3)C2=O)cc1 (single isomer, unassigned) [Example 360, (5α,8β)-2-(4-tert-Butyl-phenyl)-8-(2,2,2-trifluoro-1-hydroxy-ethyl)-2-aza-spiro[4.5]decan-1-one] | 10 nM |
| O=C1N(c2ccc(C(F)(F)F)cc2)CC[C@]12CC[C@@](O)(COCC(F)(F)F)CC2 [Example 219, (5α,8α)-8-hydroxy-8-((2,2,2-trifluoroethoxy)methyl)-2-(4-(trifluoromethyl)phenyl)-2-aza-spiro[4.5]decan-1-one] | 11 nM |
| CC[C@]1(O)CC[C@]2(CCN(c3ccc(C(C)(C)COC)cc3)C2=O)CC1 [Example 131, (5α,8α)-8-Ethyl-8-hydroxy-2-[4-(2-methoxy-1,1-dimethyl-ethyl)-phenyl]-2-aza-spiro[4.5]decan-1-one] | 90 nM |
| O=C1N(c2ccc(OCC(F)(F)F)cc2)CC[C@]12CC[C@@](O)(COc1ccccn1)CC2 [Example 371, (5α,8α)-8-Hydroxy-8-(pyridin-2-yloxymethyl)-2-[4-(2,2,2-trifluoro-ethoxy)-phenyl]-2-aza-spiro[4.5]decan-1-one] | 20 nM |
| CCC[C@]1(O)CC[C@@]2(CCN(c3ccc(OC(C)C(F)(F)F)cc3)C2=O)CC1 (stereo partly drawn) [Example 163, (5α,8β)-8-Hydroxy-8-propyl-2-[4-(2,2,2-trifluoro-1-methyl-ethoxy)-phenyl]-2-aza-spiro[4.5]decan-1-one] | 790 nM |
| CCC[C@]1(O)CC[C@]2(CCN(c3ccc(C(C)(C)C)cc3)C2=O)CC1 [Example 343, (5α,8α)-2-(4-tert-Butyl-phenyl)-8-hydroxy-8-propyl-2-aza-spiro[4.5]decan-1-one] | 20 nM |
| CC(C)[C@]1(O)CC[C@@]2(CCN(c3ccc([C@@H](O)C(F)(F)F)cc3)C2=O)CC1 [Example 136, (5α,8β)-8-Hydroxy-8-isopropyl-2-(4-((R)-2,2,2-trifluoro-1-hydroxy-ethyl)-phenyl)-2-aza-spiro[4.5]decan-1-one] | 2760 nM |
| C[C@]1(O)CC[C@]2(CCN(c3ccc(CC(F)(F)F)cc3)C2=O)CC1 [Example 77, (5α,8α)-8-Hydroxy-8-methyl-2-[4-(2,2,2-trifluoro-ethyl)-phenyl]-2-aza-spiro[4.5]decan-1-one] | 50 nM |
| COC[C@]1(O)CC[C@]2(CCN(c3ccc(OC(C)C)nc3)C2=O)CC1 [Example 329, (5α,8α)-8-Hydroxy-2-(6-isopropoxy-pyridin-3-yl)-8-methoxymethyl-2-aza-spiro[4.5]decan-1-one] | 170 nM |
| Cn1nncc1[C@]1(O)CC[C@]2(CCN(c3ccc(C(F)(F)F)cc3)C2=O)CC1 [Example 215, (5α,8α)-8-Hydroxy-8-(3-methyl-3H-[1,2,3]triazol-4-yl)-2-(4-trifluoromethyl-phenyl)-2-aza-spiro[4.5]decan-1-one] | 590 nM |
| CCOC[C@]1(O)CC[C@]2(CCN(c3ccc(OC(C)C)nc3)C2=O)CC1 [Example 330, (5α,8α)-8-Ethoxymethyl-8-hydroxy-2-(6-isopropoxy-pyridin-3-yl)-2-aza-spiro[4.5]decan-1-one] | 40 nM |
| CC[C@]1(O)CC[C@]2(CCN(c3ccc(OS(=O)(=O)C4CC4)cc3)C2=O)CC1 [Example 183, 4-((5α,8α)-8-ethyl-8-hydroxy-1-oxo-2-aza-spiro[4.5]decan-2-yl)phenyl cyclopropanesulfonate] | 70 nM |
| O=C1N(c2ccc(OCC(F)(F)F)cc2)CC[C@]12CC[C@@H](O)CC2 [Example 85, (5α,8β)-8-Hydroxy-2-[4-(2,2,2-trifluoro-ethoxy)-phenyl]-2-aza-spiro[4.5]decan-1-one] | 2290 nM |
| C=C(C)[C@]1(O)CC[C@@]2(CCN(c3ccc(OCC(F)(F)F)cc3)C2=O)CC1 [Example 106, (5α,8β)-8-Hydroxy-8-(prop-1-en-2-yl)-2-(4-(2,2,2-trifluoroethoxy)phenyl)-2-aza-spiro[4.5]decan-1-one] | 1350 nM |
| C[C@@H](Oc1ccc(N2CC[C@]3(CC[C@](O)(COCC(F)F)CC3)C2=O)cn1)C(F)(F)F [Example 313, (5α,8β)-8-(2,2-Difluoro-ethoxymethyl)-8-hydroxy-2-[6-((R)-2,2,2-trifluoro-1-methyl-ethoxy)-pyridin-3-yl]-2-aza-spiro[4.5]decan-1-one] | 280 nM |
| CC(O)C1CCC2(CC1)CCN(c1ccc(C(C)(C)C)cc1)C2=O (stereo not drawn) [Example 358, (5α,8α)-2-(4-tert-Butyl-phenyl)-8-(1-hydroxy-ethyl)-2-aza-spiro[4.5]decan-1-one] | 50 nM |
| CCSC[C@]1(O)CC[C@]2(CCN(c3ccc(OCC(F)(F)F)cc3)C2=O)CC1 [Example 261, (5α,8α)-8-Ethylsulfanylmethyl-8-hydroxy-2-[4-(2,2,2-trifluoro-ethoxy)-phenyl]-2-aza-spiro[4.5]decan-1-one] | 10 nM |
| CCC[C@]1(O)CC[C@]2(CCN(c3ccc(O[C@@H](C)C(F)(F)F)cc3)C2=O)CC1 [Example 164a, (5α,8α)-8-Hydroxy-8-propyl-2-[4-((S)-2,2,2-trifluoro-1-methyl-ethoxy)-phenyl]-2-aza-spiro[4.5]decan-1-one] | 20 nM |
| CC(C)[C@]1(O)CC[C@]2(CCN(c3ccc(C(C)(C)C)cc3)C2=O)CC1 [Example 344, (5α,8α)-2-(4-tert-Butyl-phenyl)-8-hydroxy-8-isopropyl-2-aza-spiro[4.5]decan-1-one] | 10 nM |
| CC(C)(C)c1ccc(N2CC[C@]3(CC[C@@H](C(O)c4ccn[nH]4)CC3)C2=O)cc1 (stereo partly drawn) [Example 363, (5α,8β)-2-(4-tert-Butyl-phenyl)-8-[hydroxy-(2H-pyrazol-3-yl)-methyl]-2-aza-spiro[4.5]decan-1-one] | 30 nM |
| COCCC[C@]1(O)CC[C@]2(CCN(c3ccc(CC(F)(F)F)cc3)C2=O)CC1 [Example 93, (5α,8α)-8-Hydroxy-8-(3-methoxy-propyl)-2-[4-(2,2,2-trifluoro-ethyl)-phenyl]-2-aza-spiro[4.5]decan-1-one] | 20 nM |
| CCCOC[C@]1(O)CC[C@]2(CCN(c3ccc(O[C@@H](C)C(F)(F)F)nc3)C2=O)CC1 [Example 268, (5α,8α)-8-Hydroxy-8-propoxymethyl-2-[6-((S)-2,2,2-trifluoro-1-methyl-ethoxy)-pyridin-3-yl]-2-aza-spiro[4.5]decan-1-one] | 20 nM |
